Results: patent US20260132132A1, “3A,4,5,6-TETRAHYDRO-1 H-PYRAZOLO[3,4-C]PYRIDIN-7(7AH)-ONE DERIVATIVES AS FACTOR XIIA INHIBITORS” (KALVISTA PHARMACEUTICALS LIMITED, priority 2022, published 2026)

The compounds below were run against T1, Human Factor XIIa (hFXIIa) (Homo sapiens, UniProt P00748) (assay: Determination of Human Factor XIIa (hFXIIa) inhibition, fluorogenic substrate IC50 assay). Conditions: fluorogenic substrate H-DPro-Phe-Arg-AFC at Km, 25° C., read-out: Human FXIIa IC50.
T1 construct: purchased Enzyme Research Laboratories
T1 sequence (P00748 373-615 limits assumed): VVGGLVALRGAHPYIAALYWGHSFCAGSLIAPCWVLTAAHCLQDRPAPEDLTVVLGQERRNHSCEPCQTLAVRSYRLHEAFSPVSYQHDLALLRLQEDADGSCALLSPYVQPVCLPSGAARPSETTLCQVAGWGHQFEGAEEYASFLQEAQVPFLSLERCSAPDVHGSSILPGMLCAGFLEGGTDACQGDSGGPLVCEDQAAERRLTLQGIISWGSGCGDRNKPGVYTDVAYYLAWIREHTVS
T1 sequence (P00748 20-372 partner limits assumed): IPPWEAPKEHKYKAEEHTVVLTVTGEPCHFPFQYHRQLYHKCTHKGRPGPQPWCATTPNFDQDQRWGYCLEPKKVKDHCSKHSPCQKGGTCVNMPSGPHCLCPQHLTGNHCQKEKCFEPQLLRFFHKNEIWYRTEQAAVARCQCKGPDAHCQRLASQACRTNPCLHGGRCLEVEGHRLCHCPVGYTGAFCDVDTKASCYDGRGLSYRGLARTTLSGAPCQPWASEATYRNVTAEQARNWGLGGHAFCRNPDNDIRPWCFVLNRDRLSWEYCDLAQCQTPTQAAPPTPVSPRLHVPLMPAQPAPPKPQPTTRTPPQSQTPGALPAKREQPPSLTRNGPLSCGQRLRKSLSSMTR
Format: biochemical
Protocol: Determination of Human Factor XIIa (hFXIIa) inhibition
The Km for the cleavage of the substrate by hFXIIa was determined by standard transformation of the Michaelis-Menten equation, with subsequent inhibition assays performed at substrate Km concentration.

IC50 [nM]	Structure (SMILES)
10000 to 40000	CCOC(=O)c1nn(-c2cccc(Cl)c2)c2c1CCN(c1cccc(N3CC(C(F)(F)F)CC3=O)c1)C2=O (stereo not drawn) [Example 1405, ethyl 1-(3-chlorophenyl)-7-oxo-6-(3-(2-oxo-4-(trifluoromethyl)pyrrolidin-1-yl)phenyl)-4,5,6,7-tetrahydro-1H-pyrazolo[3,4-c]pyridine-3-carboxylate]
100 to 300	O=C(NCC1CC1)c1nn(-c2cccc(Cl)c2)c2c1CCN(c1ccc3c(c1)CN(C1CCC1)CC3)C2=O [Example 1103, 1-(3-chlorophenyl)-6-(2-cyclobutyl-1,2,3,4-tetrahydroisoquinolin-7-yl)-N-(cyclopropylmethyl)-7-oxo-4,5,6,7-tetrahydro-1H-pyrazolo[3,4-c]pyridine-3-carboxamide]
1000 to 3000	O=C(NCc1ccccc1)c1nn(-c2cccc(Cl)c2)c2c1CCN(c1cccc(CN3CCOCC3)c1)C2=O [Example 1018, N-benzyl-1-(3-chlorophenyl)-6-(3-(morpholinomethyl)phenyl)-7-oxo-4,5,6,7-tetrahydro-1H-pyrazolo[3,4-c]pyridine-3-carboxamide]
300 to 1000	CCN1Cc2cc(N3CCc4c(C(=O)NCC5CC5)nn(-c5cccc(Cl)c5)c4C3=O)ccc2C(C)(C)C1 [Example 1082, 1-(3-chlorophenyl)-N-(cyclopropylmethyl)-6-(2-ethyl-4,4-dimethyl-1,2,3,4-tetrahydroisoquinolin-7-yl)-7-oxo-4,5,6,7-tetrahydro-1H-pyrazolo[3,4-c]pyridine-3-carboxamide]
10 to 100	COc1cccnc1CNC(=O)c1nn(-c2cccc(Cl)c2)c2c1CCN(c1cc3c(cn1)CCN(CCO)C3)C2=O [Example 1221, 1-(3-chlorophenyl)-6-(6-(2-hydroxyethyl)-5,6,7,8-tetrahydro-2,6-naphthyridin-3-yl)-N-((3-methoxypyridin-2-yl)methyl)-7-oxo-4,5,6,7-tetrahydro-1H-pyrazolo[3,4-c]pyridine-3-carboxamide]
300 to 1000	O=C(NCC1CC1)c1nn(-c2cccc(Cl)c2)c2c1CCN(c1ccc3c(c1)CN(C1CCOC1)CC3)C2=O (stereo not drawn) [Example 1115, 1-(3-chlorophenyl)-N-(cyclopropylmethyl)-7-oxo-6-(2-(tetrahydrofuran-3-yl)-1,2,3,4-tetrahydroisoquinolin-7-yl)-4,5,6,7-tetrahydro-1H-pyrazolo[3,4-c]pyridine-3-carboxamide]
100 to 300	O=C(NCc1cnoc1)c1nn(-c2cccc(Cl)c2)c2c1CCN(c1ccc3c(c1)CN(CCO)CC3)C2=O [Example 1167, 1-(3-chlorophenyl)-6-(2-(2-hydroxyethyl)-1,2,3,4-tetrahydroisoquinolin-7-yl)-N-(isoxazol-4-ylmethyl)-7-oxo-4,5,6,7-tetrahydro-1H-pyrazolo[3,4-c]pyridine-3-carboxamide]
100 to 300	O=C(NCc1cc(C2CC2)[nH]n1)c1nn(-c2cccc(Cl)c2)c2c1CCN(c1ccc3c(c1)C(=O)N(CCO)CC3)C2=O [Example 1259, 1-(3-chlorophenyl)-N-((5-cyclopropyl-1H-pyrazol-3-yl)methyl)-6-(2-(2-hydroxyethyl)-1-oxo-1,2,3,4-tetrahydroisoquinolin-7-yl)-7-oxo-4,5,6,7-tetrahydro-1H-pyrazolo[3,4-c]pyridine-3-carboxamide]
300 to 1000	Cc1ccncc1CNC(=O)c1nn(-c2cccc(Cl)c2)c2c1CCN(c1cnc3c(c1)C(=O)N(C)CC3)C2=O [Example 1302, 1-(3-chlorophenyl)-6-(6-methyl-5-oxo-5,6,7,8-tetrahydro-1,6-naphthyridin-3-yl)-N-((4-methylpyridin-3-yl)methyl)-7-oxo-4,5,6,7-tetrahydro-1H-pyrazolo[3,4-c]pyridine-3-carboxamide]
100 to 300	Cc1ccncc1CNC(=O)n1nc(-c2cccc(Cl)c2)c2c1CCN(c1ccc3c(c1)CN(CCO)CC3)C2=O [Example 4003, 3-(3-chlorophenyl)-5-(2-(2-hydroxyethyl)-1,2,3,4-tetrahydroisoquinolin-7-yl)-N-((4-methylpyridin-3-yl)methyl)-4-oxo-4,5,6,7-tetrahydro-1H-pyrazolo[4,3-c]pyridine-1-carboxamide]
100 to 300	CCOCCN1CCc2ccc(N3CCc4c(C(=O)NCC5CC5)nn(-c5cccc(Cl)c5)c4C3=O)cc2C1 [Example 1061, 1-(3-chlorophenyl)-N-(cyclopropylmethyl)-6-(2-(2-ethoxyethyl)-1,2,3,4-tetrahydroisoquinolin-7-yl)-7-oxo-4,5,6,7-tetrahydro-1H-pyrazolo[3,4-c]pyridine-3-carboxamide]
1000 to 3000	COCc1nn(-c2cccc(Cl)c2)c2c1CCN(c1ccc3c(c1)C(=O)N(C)CC3)C2=O [Example 1184, 7-(1-(3-chlorophenyl)-3-(methoxymethyl)-7-oxo-1,4,5,7-tetrahydro-6H-pyrazolo[3,4-c]pyridin-6-yl)-2-methyl-3,4-dihydroisoquinolin-1(2H)-one]
3000 to 10000	Cc1ccc(N2CCc3c(C(=O)NCC4CC4)nn(-c4cccc(Cl)c4)c3C2=O)cc1C(=O)N(C)C [Example 1244, 1-(3-chlorophenyl)-N-(cyclopropylmethyl)-6-(3-(dimethylcarbamoyl)-4-methylphenyl)-7-oxo-4,5,6,7-tetrahydro-1H-pyrazolo[3,4-c]pyridine-3-carboxamide]
10 to 100	Cc1cc(CNC(=O)c2nn(-c3cccc(Cl)c3)c3c2CCN(c2ccc4c(c2)CN(CCO)CC4)C3=O)nn1C [Example 1166, 1-(3-chlorophenyl)-N-((1,5-dimethyl-1H-pyrazol-3-yl)methyl)-6-(2-(2-hydroxyethyl)-1,2,3,4-tetrahydroisoquinolin-7-yl)-7-oxo-4,5,6,7-tetrahydro-1H-pyrazolo[3,4-c]pyridine-3-carboxamide]
300 to 1000	CN1CCc2ccc(N3CCc4c(C(=O)NCC5CCO5)nn(-c5cccc(Cl)c5)c4C3=O)cc2C1 (stereo not drawn) [Example 1045, 1-(3-chlorophenyl)-6-(2-methyl-1,2,3,4-tetrahydroisoquinolin-7-yl)-N-(oxetan-2-ylmethyl)-7-oxo-4,5,6,7-tetrahydro-1H-pyrazolo[3,4-c]pyridine-3-carboxamide]
100 to 300	CCN1CCc2c(COC)cc(N3CCc4c(C(=O)NCC5CC5)nn(-c5cccc(Cl)c5)c4C3=O)cc2C1 [Example 1169, 1-(3-Chlorophenyl)-N-(cyclopropylmethyl)-6-(2-ethyl-5-(methoxymethyl)-1,2,3,4-tetrahydroisoquinolin-7-yl)-7-oxo-4,5,6,7-tetrahydro-1H-pyrazolo[3,4-c]pyridine-3-carboxamide]
100 to 300	CS(=O)(=O)NCCN1CCc2ccc(N3CCc4c(C(=O)NCC5CC5)nn(-c5cccc(Cl)c5)c4C3=O)cc2C1 [Example 1083, 1-(3-chlorophenyl)-N-(cyclopropylmethyl)-6-(2-(2-(methylsulfonamido)ethyl)-1,2,3,4-tetrahydroisoquinolin-7-yl)-7-oxo-4,5,6,7-tetrahydro-1H-pyrazolo[3,4-c]pyridine-3-carboxamide]
300 to 1000	CN1CCc2ccc(N3CCc4c(C(=O)NC5CCNC(=O)C5)nn(-c5cccc(Cl)c5)c4C3=O)cc2C1 (stereo not drawn) [Example 1057, 1-(3-chlorophenyl)-6-(2-methyl-1,2,3,4-tetrahydroisoquinolin-7-yl)-7-oxo-N-(2-oxopiperidin-4-yl)-4,5,6,7-tetrahydro-1H-pyrazolo[3,4-c]pyridine-3-carboxamide]
